The values that follow come from patent publication US10213429B2, “Imidazo-pyrazinyl derivatives useful as soluble guanylate cyclase activators” (Merck Sharp & Dohme Corp., priority 2015, dated 2019).

In test [1] the test system is Spontaneously hypertensive rats (SHR). Description: Acute Efficacy in Spontaneously Hypertensive Rats (SHR), telemetry blood pressure. Type of test: in vivo, rat. The conditions noted are these: SHR male. An excerpt:
Acute Efficacy in Spontaneously Hypertensive Rats (SHR)
Spontaneously hypertensive rats (SHR, male, Charles River) were implanted with DSI TA11PA-C40 telemetry device (Data Sciences, Inc., St. Paul, Minn.) under isoflurane or ketamine/metomidine anesthesia. The telemetry unit catheter was inserted into the descending aorta via the femoral artery and the telemetry device was implanted subcutaneously in the left flank area. Animals were allowed to recover from surgery for 14 days before the start of any studies. Blood pressure, heart rate, and activity signals from conscious, freely moving rats were recorded continuously for 30 seconds every 10 minutes. On the day prior to administration of compound, a single oral dose of vehicle (10% transcutol/20% Cremophor/70% water) was administered to all animals to establish baseline control data. The blood pressure lowering efficacy of compound (PO) or vehicle was evaluated following a single oral gavage. Data were collected as hourly averages, and changes in blood pressure were calculated by subtracting control baseline data on an hourly basis. Animals were maintained on normal diet with a 12 hour light-dark cycle.
Maximum peak decreases of systolic blood pressure (SBP) in SHR at a particular P.O. dose (mpk milligrams per kilogram) for the following representative compounds are provided. • Category A=SBP in SHRs<20 mmHg; Category B=SBP in SHRs 20-40 mmHg; • Category C=SBP in SHRs>40 mmHg

The next test has as its target T1, sGC α1/β1 heterodimer (Homo sapiens, UniProt Q02108+Q02153).
T1 construct: expressed in transfected cells; host or cells: CHO-K1 (clone #7, CHO-K1/sGC)
T1 sequence (Q02108 1-690): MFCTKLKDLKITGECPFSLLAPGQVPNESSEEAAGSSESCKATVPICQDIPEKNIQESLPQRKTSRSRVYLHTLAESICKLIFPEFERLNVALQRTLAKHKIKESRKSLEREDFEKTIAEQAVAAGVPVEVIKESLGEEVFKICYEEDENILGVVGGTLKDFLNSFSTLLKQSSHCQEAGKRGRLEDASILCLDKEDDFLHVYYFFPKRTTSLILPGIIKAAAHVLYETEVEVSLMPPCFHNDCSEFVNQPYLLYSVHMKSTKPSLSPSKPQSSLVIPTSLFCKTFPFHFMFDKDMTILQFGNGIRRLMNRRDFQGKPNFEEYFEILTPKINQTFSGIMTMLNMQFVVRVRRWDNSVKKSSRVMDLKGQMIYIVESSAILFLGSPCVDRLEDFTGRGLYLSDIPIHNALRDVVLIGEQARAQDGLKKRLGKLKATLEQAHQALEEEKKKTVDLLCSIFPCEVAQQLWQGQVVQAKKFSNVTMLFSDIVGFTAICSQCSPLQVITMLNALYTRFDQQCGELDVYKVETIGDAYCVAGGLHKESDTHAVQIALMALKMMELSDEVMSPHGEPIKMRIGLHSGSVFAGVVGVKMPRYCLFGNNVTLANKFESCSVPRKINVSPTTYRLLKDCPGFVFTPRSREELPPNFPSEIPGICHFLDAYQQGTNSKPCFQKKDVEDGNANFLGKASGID
T1 sequence (Q02153 1-619): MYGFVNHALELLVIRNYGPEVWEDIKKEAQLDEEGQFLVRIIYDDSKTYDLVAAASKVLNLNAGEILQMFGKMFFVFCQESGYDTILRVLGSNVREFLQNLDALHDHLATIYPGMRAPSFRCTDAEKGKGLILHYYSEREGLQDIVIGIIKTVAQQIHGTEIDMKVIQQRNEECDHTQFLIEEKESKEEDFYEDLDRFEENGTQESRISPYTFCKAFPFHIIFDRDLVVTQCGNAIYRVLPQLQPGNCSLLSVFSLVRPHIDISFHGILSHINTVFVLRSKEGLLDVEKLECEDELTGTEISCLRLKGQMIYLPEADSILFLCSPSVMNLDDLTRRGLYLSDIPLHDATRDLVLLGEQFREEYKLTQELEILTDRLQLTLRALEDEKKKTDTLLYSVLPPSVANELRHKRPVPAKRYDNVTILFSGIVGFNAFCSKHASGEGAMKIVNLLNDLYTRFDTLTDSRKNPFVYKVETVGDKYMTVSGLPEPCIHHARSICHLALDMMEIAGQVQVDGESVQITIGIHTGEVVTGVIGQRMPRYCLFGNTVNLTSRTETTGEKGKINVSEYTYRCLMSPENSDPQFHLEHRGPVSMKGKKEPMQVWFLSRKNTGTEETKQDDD
Description: Cell-Based sGC Functional Assay (CASA Assay), cGMP by HTRF in CHO-K1/sGC cells. The note with it: for Emax: CHO-K1, percent activation relative to maximum cGMP production of Compound A (= 100%), read-out: % Act.; for EC50: cGMP production, 1 hr at 37° C., 4P fit, presence or absence of 1 μM DETA-NO not given, read-out: IP (nM) (inflection point). The essentials:
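CHO-K1 cells stably expressing human sGC α1/β1, in EBSS buffer with 5 mM MgCl2, 10 mM HEPES, 0.05% BSA and 0.5 mM IBMX, incubated with compound (2.5% DMSO) ± 1 μM DETA-NO, 1 h, 37 °C. Intracellular cGMP read by HTRF; activity as % of reference activator maximum, IP from 4-parameter fit.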
For orientation: TR-FRET usually uses a lanthanide donor and a delayed reading to cut background.

On to `CC1(c2ccc(F)cc2)C(=O)Nc2nc(-c3cn4ccnc4c(CC4CCC4)n3)nc(O)c21` (stereo not drawn) [Example 29A, 2-(8-(cyclobutylmethyl)imidazo [1,2-a]pyrazin-6-yl)-5-(4-fluorophenyl)-4-hydroxy-5-methyl-5H-pyrrolo[2,3-d]pyrimidin-6(7H)-one], for which the “Cat. (maximum peak decrease of systolic blood pressure (SBP) in SHR)” value in test [1] (single oral dose 3.0 mpk P.O.) is recorded as “B (Category B=SBP in SHRs 20-40 mmHg)”. Moreover, on sGC α1/β1 heterodimer, the Emax stood at 92% and the EC50 was found to be 225 nM.

Turning to `CCCCc1nc(-c2ncc3c(n2)NC(=O)C3(c2ccc(Cl)cc2)C2CC2)cn2ccnc12` (stereo not drawn) [Example 49B, 2-(8-butylimidazo[1,2-a]pyrazin-6-yl)-5-(4-chlorophenyl)-5-cyclopropyl-5H-pyrrolo[2,3-d]pyrimidin-6(7H)-one], the “Cat. (maximum peak decrease of systolic blood pressure (SBP) in SHR)” value in test [1] (single oral dose 1.0 mpk P.O.) is reported as “B (Category B=SBP in SHRs 20-40 mmHg)”. For the same compound, on sGC α1/β1 heterodimer, the Emax came to 157% and the EC50 was determined as 24 nM.

On to `CC1(c2ccc(F)cc2)C(=O)Nc2nc(-c3cn4ccnc4c(CCC(F)(F)C(F)(F)F)n3)nc(O)c21` (stereo not drawn) [Example 2A, 5-(4-Fluorophenyl)-4-hydroxy-5-methyl-2-(8-(3,3,4,4,4-pentafluorobutyl)imidazo[1,2-a]pyrazin-6-yl)-5H-pyrrolo[2,3-d]pyrimidin-6(7H)-one], for which, in test [1] (single oral dose 3.0 mpk P.O.), the “Cat. (maximum peak decrease of systolic blood pressure (SBP) in SHR)” value is on record as “B (Category B=SBP in SHRs 20-40 mmHg)”. In addition, on sGC α1/β1 heterodimer, the Emax was 102% and the EC50 worked out at 433 nM.

As to `CCCCc1nc(-c2ncc3c(n2)NC(=O)C3(C)c2ccc(F)cc2)cn2ccnc12` (stereo not drawn) [Example 78A, 2-(8-Butylimidazo[1,2-a]pyrazin-6-yl)-5-(4-fluorophenyl)-5-methyl-5H-pyrrolo[2,3-d]pyrimidin-6(7H)-one], in test [1] (single oral dose 1.0 mpk P.O.), the “Cat. (maximum peak decrease of systolic blood pressure (SBP) in SHR)” value is recorded as “C (Category C=SBP in SHRs>40 mmHg)”. On sGC α1/β1 heterodimer, the Emax is 121% and the EC50 turned out to be 50 nM.

As for `CC(C)Cc1nc(-c2ncc3c(n2)NC(=O)C3(C)c2ccc(Cl)cn2)cn2ccnc12` (stereo not drawn) [Example 41A, 5-(5-chloropyridin-2-yl)-2-(8-isobutylimidazo[1,2-a]pyrazin-6-yl)-5-methyl-5H-pyrrolo[2,3-d]pyrimidin-6(7H)-one], in test [1] (single oral dose 3.0 mpk P.O.), the “Cat. (maximum peak decrease of systolic blood pressure (SBP) in SHR)” value is “A (Category A=SBP in SHRs<20 mmHg)”. For the same compound, on sGC α1/β1 heterodimer, the Emax was 111% and the EC50 amounted to 235 nM.

Regarding `CC1(c2ccc(F)cc2)C(=O)Nc2nc(-c3cn4ccnc4c(CCCC(F)(F)F)n3)ncc21` (stereo not drawn) [Example 64A, 5-(4-fluorophenyl)-5-methyl-2-(8-(4,4,4-trifluorobutyl)imidazo[1,2-a]pyrazin-6-yl)-5H-pyrrolo[2,3-d]pyrimidin-6(7H)-one], the “Cat. (maximum peak decrease of systolic blood pressure (SBP) in SHR)” value in test [1] (single oral dose 0.3 mpk P.O.) is given as “B (Category B=SBP in SHRs 20-40 mmHg)”. Moreover, at sGC α1/β1 heterodimer, the Emax came out at 141% and the EC50 was found to be 35 nM.

In the case of `CCCCc1nc(-c2ncc3c(n2)NC(=O)C3(c2ccc(Cl)cn2)C2CC2)cn2ccnc12` (stereo not drawn) [Example 55A, 2-(8-butylimidazo[1,2-a]pyrazin-6-yl)-5-(5-chloropyridin-2-yl)-5-cyclopropyl-5H-pyrrolo[2,3-d]pyrimidin-6(7H)-one], in test [1] (single oral dose 2.0 mpk P.O.), the “Cat. (maximum peak decrease of systolic blood pressure (SBP) in SHR)” value was “B (Category B=SBP in SHRs 20-40 mmHg)”. In addition, on sGC α1/β1 heterodimer, the Emax was 188% and the EC50 is 73 nM.

As for `CCCCc1nc(-c2nc(O)c3c(n2)NC(=O)C3(c2ccc(Cl)cc2)C2CC2)cn2ccnc12` (stereo not drawn) [Example 23B, 2-(8-butylimidazo[1,2-a]pyrazin-6-yl)-5-(4-chlorophenyl)-5-cyclopropyl-4-hydroxy-5H-pyrrolo[2,3-d]pyrimidin-6(7H)-one], in test [1] (single oral dose 1.0 mpk P.O.), the “Cat. (maximum peak decrease of systolic blood pressure (SBP) in SHR)” value is given as “A (Category A=SBP in SHRs<20 mmHg)”. Further, on sGC α1/β1 heterodimer, the Emax is 146% and the EC50 was found to be 204 nM.

Consider `O=C1Nc2nc(-c3cn4ccnc4c(CCCC(F)(F)F)n3)nc(O)c2C1(c1ccc(Cl)cc1)C1CC1` (stereo not drawn) [Example 24B, 5-(4-chlorophenyl)-5-cyclopropyl-4-hydroxy-2-(8-(4,4,4-trifluorobutyl)imidazo[1,2-a]pyrazin-6-yl)-5H-pyrrolo[2,3-d]pyrimidin-6(7H)-one], for which the “Cat. (maximum peak decrease of systolic blood pressure (SBP) in SHR)” value in test [1] (single oral dose 3.0 mpk P.O.) was “A (Category A=SBP in SHRs<20 mmHg)”. Also, on sGC α1/β1 heterodimer, the Emax was found to be 169% and the EC50 was 106 nM.

Take `CC1(c2ccc(F)cn2)C(=O)Nc2nc(-c3cn4ccnc4c(CCCC(F)(F)F)n3)nc(O)c21` (stereo not drawn) [Example 32B, 5-(5-fluoropyridin-2-yl)-4-hydroxy-5-methyl-2-(8-(4,4,4-trifluorobutyl)imidazo[1,2-a]pyrazin-6-yl)-5H-pyrrolo[2,3-d]pyrimidin-6(7H)-one]: the “Cat. (maximum peak decrease of systolic blood pressure (SBP) in SHR)” value in test [1] (single oral dose 1.0 mpk P.O.) was “B (Category B=SBP in SHRs 20-40 mmHg)”. Moreover, at sGC α1/β1 heterodimer, the Emax amounted to 115% and the EC50 was 880 nM.

As to `CC1(c2ccc(F)cc2)C(=O)Nc2nc(-c3cn4ccnc4c(CCC(F)(F)C(F)(F)F)n3)ncc21` (stereo not drawn) [Example 1A, 5-(4-Fluorophenyl)-5-methyl-2-(8-(3,3,4,4,4-pentafluorobutyl)imidazo[1,2-a]pyrazin-6-yl)-5H-pyrrolo[2,3-d]pyrimidin-6(7H)-one], the “Cat. (maximum peak decrease of systolic blood pressure (SBP) in SHR)” value in test [1] (single oral dose 1.0 mpk P.O.) was “B (Category B=SBP in SHRs 20-40 mmHg)”. Also, on sGC α1/β1 heterodimer, the Emax is 121% and the EC50 amounted to 228 nM.

`O=C1Nc2nc(-c3cn4ccnc4c(CCCC(F)(F)F)n3)ncc2C1(c1ccc(Cl)cn1)C1CC1` (stereo not drawn) [Example 9A, 5-(5-chloropyridin-2-yl)-5-cyclopropyl-2-(8-(4,4,4-trifluorobutyl)imidazo[1,2-a]pyrazin-6-yl)-5H-pyrrolo[2,3-d]pyrimidin-6(7H)-one]: the “Cat. (maximum peak decrease of systolic blood pressure (SBP) in SHR)” value in test [1] (single oral dose 2.0 mpk P.O.) is given as “B (Category B=SBP in SHRs 20-40 mmHg)”. On sGC α1/β1 heterodimer, the Emax was 120% and the EC50 worked out at 74 nM.

On to `CC1(c2ccc(Cl)cn2)C(=O)Nc2nc(-c3cn4ccnc4c(CCCC(F)(F)F)n3)ncc21` (stereo not drawn) [Example 59A, 5-(5-chloropyridin-2-yl)-5-methyl-2-(8-(4,4,4-trifluorobutyl)imidazo[1,2-a]pyrazin-6-yl)-5H-pyrrolo[2,3-d]pyrimidin-6(7H)-one], for which the “Cat. (maximum peak decrease of systolic blood pressure (SBP) in SHR)” value in test [1] (single oral dose 1.0 mpk P.O.) is given as “B (Category B=SBP in SHRs 20-40 mmHg)”. On sGC α1/β1 heterodimer, the Emax amounted to 91% and the EC50 turned out to be 68 nM.

`CC1(c2ccc(F)cc2)C(=O)Nc2nc(-c3cn4ccnc4c(CCCC(F)(F)F)n3)nc(O)c21` (stereo not drawn) [Example 30A, 5-(4-fluorophenyl)-4-hydroxy-5-methyl-2-(8-(4,4,4-trifluorobutyl)imidazo[1,2-a]pyrazin-6-yl)-5H-pyrrolo[2,3-d]pyrimidin-6(7H)-one]: the “Cat. (maximum peak decrease of systolic blood pressure (SBP) in SHR)” value in test [1] (single oral dose 1.0 mpk P.O.) is on record as “B (Category B=SBP in SHRs 20-40 mmHg)”. At sGC α1/β1 heterodimer, the Emax worked out at 89% and the EC50 came out at 436 nM.
